Consider one molecule from US20230282357A1, “ACUTE LIVER PATIENT MANAGEMENT” (MERIDIAN BIOSCIENCE ISRAEL LTD., priority 2020, published 2023).

Where two headings read alike, the source gives them in different places.

For series [1] the following is noted: human, in vivo.
The target in series [2] is T1, CYP1A2 metabolism (Homo sapiens, UniProt P05177).
T1 sequence (P05177 1-516): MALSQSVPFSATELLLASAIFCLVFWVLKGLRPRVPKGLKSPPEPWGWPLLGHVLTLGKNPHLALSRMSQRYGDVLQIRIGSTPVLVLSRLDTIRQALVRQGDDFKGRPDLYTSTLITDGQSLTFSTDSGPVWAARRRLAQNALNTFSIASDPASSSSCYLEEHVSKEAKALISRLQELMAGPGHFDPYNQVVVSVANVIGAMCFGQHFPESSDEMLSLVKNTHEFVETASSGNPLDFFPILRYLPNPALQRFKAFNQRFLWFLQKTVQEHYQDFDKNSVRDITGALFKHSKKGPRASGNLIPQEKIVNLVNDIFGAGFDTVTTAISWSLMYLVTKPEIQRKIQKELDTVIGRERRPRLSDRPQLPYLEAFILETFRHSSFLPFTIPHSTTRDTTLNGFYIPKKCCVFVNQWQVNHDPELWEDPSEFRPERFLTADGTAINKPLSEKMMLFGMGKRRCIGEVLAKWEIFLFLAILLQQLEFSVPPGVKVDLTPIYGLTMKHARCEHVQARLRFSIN
The note with it: in vivo.
Description: (§1) A ^13C-methacetin breath test (MBT), which assays CYP1A2 metabolism, for assessing functional liver capacity and its changes over time, was utilized to predict transplant-free survival.
(§2) Method: Eligible patients with ALF or non-acetaminophen (APAP) ALI underwent ^13C-MBT at day 1, 2, 3, 5 and 7 after enrollment, unless discharged, transplanted or died. 75 mg of ^13C-methacetin was administered orally or via a nasogastric tube, and exhaled ^13CO2 measured for up to 60 minutes using the BreathID® (Exalenz Bioscience Ltd., Modi’in, Israel). The percent dose recovery (PDR) peak was determined on day 1 or 2 and correlated with 21-day outcome.

Series [3] addresses T1, CYP1A2 metabolism. The series can be described thus: 13C-methacetin breath test (MBT), PDR-peak in ALF/ALI patients.
Description: as §1, §2

As for `CC(=O)Nc1ccc(O[13CH3])cc1` [^13C-methacetin], in series [1], the “de-novo or worsening serum cysteine-APAP protein adduct levels on serial testing” value is on record as “None of the first 20 patients”. In addition, the “serious adverse events attributable to test device or substrate” value in series [1] was “no serious adverse events”. In addition, on CYP1A2 metabolism [2], the “mean serial PDR-peaks, TFS vs non-TFS” value was “consistently higher”. Also, the “serial PDR peak results” value on CYP1A2 metabolism [2] is “very low PDR-peak during the entire period”; at CYP1A2 metabolism [3] (ALF DILI patient who survived without transplant, FIG. 6), “improved from day 2 through day 7”. For the same molecule, the “AUROC of PDR-peak as predictor of 21-day transplant free survival” value at CYP1A2 metabolism [3] (42 ALF patients, Day 1 or 2 PDR-peak values) is given as 0.82 (95% CI 0.68-0.96); on CYP1A2 metabolism [3] (42 ALF patients, combined with the ALFSG prognostic index), 0.93; on CYP1A2 metabolism [3] (42 ALF patients, with inclusion of ALF etiology), 0.89 (95% CI 0.79-0.98); on CYP1A2 metabolism [3] (56 ALF and ALI patients, day 1 or 2 measures) it was 0.88 (95% CI 0.79-0.97); at CYP1A2 metabolism [3] (56 ALF and ALI patients, with inclusion of the etiology of ALI/ALF), 0.92 (95% CI 0.85-0.99). Further, the “day 1 or 2 mean PDR-peak” value at CYP1A2 metabolism [3] (transplant-free survivors (TFS), 75 mg orally or via nasogastric tube, exhaled 13CO2 up to 60 minutes) was determined as 9.2 %/h.
